Results: ChEMBL document CHEMBL4261582, “Natural products as inhibitors of Leishmania major dihydroorotate dehydrogenase” (Eur J Med Chem, 2018)
pIC50: −log10 of the molar value.

What was measured:
[1] = biological target: Dihydroorotate dehydrogenase (quinone), mitochondrial (Homo sapiens) (UniProt Q02127); assay: Inhibition of human DHODH at 100 uM
[2] = biological target: T1, Dihydroorotate dehydrogenase (fumarate) (Leishmania major) (UniProt Q4QEW7); assay: Inhibition of recombinant oligo-histidine-tagged Leishmania major DHODH expressed in Escherichia coli BL21(DE3) cells at 100 uM using DHO as substrate measured after 60 secs
T1 sequence (whole entry): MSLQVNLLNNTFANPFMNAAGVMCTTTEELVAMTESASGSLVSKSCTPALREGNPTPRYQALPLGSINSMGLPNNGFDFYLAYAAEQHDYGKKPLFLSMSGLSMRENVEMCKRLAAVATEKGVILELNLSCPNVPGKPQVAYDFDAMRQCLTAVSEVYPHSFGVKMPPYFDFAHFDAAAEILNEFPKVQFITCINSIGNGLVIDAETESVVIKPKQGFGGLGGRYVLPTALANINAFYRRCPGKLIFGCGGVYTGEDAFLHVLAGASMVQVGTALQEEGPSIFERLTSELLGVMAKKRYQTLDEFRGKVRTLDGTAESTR

[3] = biological target: T2, Dihydroorotate dehydrogenase (fumarate) (Leishmania major, UniProt Q4QEW7); assay: Inhibition of recombinant oligo-histidine-tagged Leishmania major DHODH expressed in Escherichia coli BL21(DE3) cells using DHO as substrate measured after 60 secs; settings: for pIC50: read-out: IC50
T2 sequence (Q4QEW7 whole entry): T1 sequence (whole entry)

[4] = test system: Trypanosoma cruzi; assay: Antitrypanosomal activity against Trypanosoma cruzi trypomastigotes; type: functional, organism-based
[5] = biological target: T1, Dihydroorotate dehydrogenase (fumarate) (Leishmania major); assay: Binding affinity to Leishmania major DHODH assessed as change in melting temperature at 100 uM by differential scanning fluorimetry-based ThermoFMN assay
[6] = biological target: T1, Dihydroorotate dehydrogenase (fumarate) (Leishmania major); assay: Binding affinity to Leishmania major DHODH assessed as change in melting temperature at 500 uM by differential scanning fluorimetry-based ThermoFMN assay
[7] = biological target: T1, Dihydroorotate dehydrogenase (fumarate) (Leishmania major); assay: Binding affinity to Leishmania major DHODH assessed as change in melting temperature at 1000 uM by differential scanning fluorimetry-based ThermoFMN assay
[8] = biological target: T1, Dihydroorotate dehydrogenase (fumarate) (Leishmania major); assay: Binding affinity to Leishmania major DHODH assessed as change in melting temperature at 100 uM by SYPRO orange dye-based differential scanning fluorimetry
[9] = biological target: T1, Dihydroorotate dehydrogenase (fumarate) (Leishmania major); assay: Binding affinity to Leishmania major DHODH assessed as change in melting temperature at 500 uM by SYPRO orange dye-based differential scanning fluorimetry
[10] = biological target: T1, Dihydroorotate dehydrogenase (fumarate) (Leishmania major); assay: Binding affinity to Leishmania major DHODH assessed as change in melting temperature at 1000 uM by SYPRO orange dye-based differential scanning fluorimetry
[11] = test system: Leishmania amazonensis; assay: Antileishmanial activity against Leishmania amazonensis WHOM/BR/75/Josefa promastigotes after 72 hrs by Neubauer chamber method; type: functional, organism-based
[12] = test system: Leishmania amazonensis; assay: Antileishmanial activity against Leishmania amazonensis WHOM/BR/75/Josefa amastigotes after 72 hrs by Neubauer chamber method; type: functional, organism-based
[13] = test system: Leishmania braziliensis; assay: Antileishmanial activity against Leishmania braziliensis H3227 MHOM/BR/94/H-3227 promastigotes after 72 hrs by MTT assay; type: functional, organism-based; settings: H3227 MHOM/BR/94/H-3227, 72 h

Dihydroorotate dehydrogenase (quinone), mitochondrial (Homo sapiens), sequence (Q02127 whole entry): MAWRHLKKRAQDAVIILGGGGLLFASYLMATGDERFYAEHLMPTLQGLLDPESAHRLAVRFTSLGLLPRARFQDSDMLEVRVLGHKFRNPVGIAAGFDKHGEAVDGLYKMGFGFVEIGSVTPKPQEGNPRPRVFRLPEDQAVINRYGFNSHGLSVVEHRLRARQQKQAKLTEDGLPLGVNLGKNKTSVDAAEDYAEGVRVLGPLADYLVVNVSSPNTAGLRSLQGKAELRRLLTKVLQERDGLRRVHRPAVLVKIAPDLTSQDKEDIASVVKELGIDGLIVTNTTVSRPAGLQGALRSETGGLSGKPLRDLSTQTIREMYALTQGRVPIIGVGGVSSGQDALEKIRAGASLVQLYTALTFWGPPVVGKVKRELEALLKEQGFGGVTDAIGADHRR

| pIC50 [3] | ΔTm [5] | ΔTm [6] | ΔTm [7] | ΔTm [8] | ΔTm [9] | ΔTm [10] | SMILES | further results |
| --- | --- | --- | --- | --- | --- | --- | --- | --- |
| 4.14 | – | – | – | – | – | – | O=C(/C=C/c1ccc(O)c(O)c1)O[C@H]1[C@H](O)C[C@](O)(C(=O)O)C[C@H]1OC(=O)/C=C/c1ccc(O)c(O)c1 | inhibition [1]: 10%; inhibition [2]: 38%; pIC50 [4]: 3.54 |
| 3.19 | – | – | – | – | – | – | O=C(/C=C/c1ccc(O)c(O)c1)O[C@@H]1[C@H](O)C[C@@](O)(C(=O)O)C[C@H]1OC(=O)/C=C/c1ccc(O)c(O)c1 | – |
| 3.77 | – | – | – | – | – | – | C=C(C)C(=O)O[C@@H]1C[C@@](C)(O)[C@@H]2C(=O)C=C(C)[C@@H]2[C@H]2OC(=O)C(=C)[C@@H]21 | – |
| 3.56 | – | – | – | – | – | – | C=C(C)C(=O)O[C@H]1C[C@@]2(C)OC(=CC2=O)/C(C)=C\[C@H]2OC(=O)C(=C)[C@H]12 | pIC50 [4]: 3.29 |
| 3.19 | -0.48 °C | -1.07 °C | -1.48 °C | -0.09 °C | -0.17 °C | -0.07 °C | C=C1C(=O)O[C@@H]2/C=C(\C)CC/C=C(/C=O)[C@@H](O)[C@@H](OC(=O)/C(C)=C\C)[C@@H]12 | – |
| 2.85 | – | – | – | – | – | – | C=C1[C@@H]2CC[C@H]3[C@]4(C)CCC[C@@](C)(C(=O)O)[C@H]4CC[C@]3(C2)[C@H]1OC(=O)/C=C/c1ccccc1 | – |
| 2.89 | – | – | – | – | – | – | O=C(/C=C/c1ccc(O)c(O)c1)O[C@@H]1CC(O)(C(=O)O)C[C@@H](OC(=O)/C=C/c2ccc(O)c(O)c2)C1O (some centres undefined) | – |
| 3.21 | – | – | – | – | – | – | COc1ccc(/C=C/C(=O)NC2CCCN2C(=N)N)cc1O (centres undefined) | – |

Further lines, the compound ahead of its results:

| SMILES | pIC50 [3] | ΔTm [5] | ΔTm [6] | ΔTm [7] | ΔTm [8] | ΔTm [9] | ΔTm [10] | further results |
| --- | --- | --- | --- | --- | --- | --- | --- | --- |
| C=C(C)C(=O)O[C@@H]1C[C@](C)(O)[C@@H]2C(=O)C=C(C)[C@@H]2[C@H]2OC(=O)C(=C)[C@@H]21 | 3.18 | – | – | – | – | – | – | – |
| O=C(/C=C/c1ccc(O)c(O)c1)O[C@@H]1C[C@@](O)(C(=O)O)C[C@@H](O)[C@@H]1O | 2.95 | – | – | – | – | – | – | – |
| C=C1C(=O)O[C@@H]2[C@H]3C(C)=CC(=O)C3=C(C)C[C@@H](OC(=O)[C@]3(C)O[C@@H]3C)[C@@H]12 | 3.23 | -0.26 °C | -0.64 °C | -0.85 °C | -0.38 °C | -0.75 °C | -1.01 °C | – |
| C=C1CC[C@H]2[C@@](C)(CCC[C@@]2(C)C(=O)O)[C@@H]1CCc1ccoc1 | 2.58 | – | – | – | – | – | – | – |
| C=C1CC[C@H]2[C@@](C)(CCC[C@@]2(C)C(=O)O)[C@@H]1CC/C(C)=C/C(=O)O | 3.15 | – | – | – | – | – | – | pIC50 [11]: 3.96 to 4.08; pIC50 [12]: 4.29 to 4.32 |
| C=C(C)C(=O)O[C@H]1C[C@@]2(C)OC(=CC2=O)[C@@H](C)C[C@H]2OC(=O)C(=C)[C@H]12 | 3.84 | -0.27 °C | -0.22 °C | -0.27 °C | -0.18 °C | -0.27 °C | -0.45 °C | – |
| CC[C@@H](C)[C@@]1(O)O[C@H]2C[C@@]3(C)OC(=CC3=O)/C(CO)=C\[C@H]3OC(=O)[C@@]1(C)[C@H]23 | 3.01 | -0.15 °C | -0.32 °C | -0.61 °C | -0.13 °C | -0.96 °C | -1.83 °C | IC50 ([3]; read-out: pIC50 (converted)): 794 µM |
| C/C=C(/C)[C@@]1(O)O[C@H]2C[C@@]3(C)OC(=CC3=O)/C(C)=C\[C@H]3OC(=O)[C@@]1(C)[C@H]23 | 3.46 | – | – | – | – | – | – | – |
| CC[C@@H](C)[C@@]1(O)O[C@H]2C[C@@]3(C)OC(=CC3=O)/C(COC(C)=O)=C\[C@H]3OC(=O)[C@@]1(C)[C@H]23 | 2.92 | -0.41 °C | -0.65 °C | -0.76 °C | -0.86 °C | -1.8 °C | -1.39 °C | – |
| C=C1C(=O)O[C@@H]2/C=C(/C)C(=O)[C@@H]3O[C@H]3[C@](C)(O)C[C@@H](OC(=O)C(C)C)[C@@H]12 | 3.99 | – | – | – | – | – | – | inhibition [1]: 12%; inhibition [2]: 42%; pIC50 [13]: 5.22 |
| O=C(O)c1cc(=O)[nH]c(=O)[nH]1 | – | 1.29 °C | 4.32 °C | 6.12 °C | 0.39 °C | 1.43 °C | 1.62 °C | – |
